The text below walks through data of patent EP0134650B1, “High boiling solvent system for recovery of acetic acid from aqueous solutions” (CELANESE CORPORATION, priority 1983, dated 1985).

The data set can be described thus: Dissolved water in the solvent layer (extract) of acetic acid extraction. The class given is physicochemical. As to conditions: Acid in solvent layer 16.85 wt.%. An excerpt: Generally as the distribution coefficient goes up, water solubility increases in the extract. The effect for methyl n-amyl ketone and diisobutyl ketone is as follows: […]

For `CC(C)CC(=O)CC(C)C` [diisobutyl ketone], the “Dissolved water in solvent layer, wt.%” value came out at 3.0 wt.%. Under `CCCCCC(C)=O` [methyl n-amyl ketone] stands 5.0 wt.%.
